Experimental data from the NIST ThermoML archive (doi:10.1016/j.jct.2010.04.011).
± gives the expanded uncertainty stated by the source.

Assay: activity coefficient (dimensionless); of the first substance listed, at infinite dilution; xn = mol fraction of the nth substance listed
Conditions: 298 K, Chromatography, x1 = 0

In the case of `C1=CCCCC1` [cyclohexene] + C[S+](C)[O-], the activity coefficient (101 kPa, Liquid) is reported as 14.9 ± 3.

`Cc1ccc(C(C)C)cc1` [1-(1-methylethyl)-4-methylbenzene] + C[S+](C)[O-] gave an activity coefficient (101 kPa, Liquid) of 15.1 ± 3.1.

With `C#CCCCCCC` [1-octyne] + C[S+](C)[O-] the activity coefficient (101 kPa, Liquid) was 10.2 ± 2.1.

Molecule `C=CCCC=C` [1,5-hexadiene] + CCCCCCCCCCCCCCCC has an activity coefficient (101 kPa, Liquid) of 0.8 ± 0.16.

Molecule `C#CCCCC` [1-hexyne] + C[S+](C)[O-] has an activity coefficient (101 kPa, Liquid) of 4.1 ± 0.8.

For `C1=CC=CCC=C1` [1,3,5-cycloheptatriene] + C[S+](C)[O-], the activity coefficient (101 kPa, Liquid) was 5.7 ± 1.2.

Molecule `CC1CCCCC1` [methylcyclohexane] + C[S+](C)[O-] has an activity coefficient (101 kPa, Liquid) of 49.2 ± 10.

Molecule `C1=CCCC1` [cyclopentene] + C[S+](C)[O-] has an activity coefficient (101 kPa, Liquid) of 7 ± 1.4.

With `C=CCCC=C` [1,5-hexadiene] + C[S+](C)[O-] the activity coefficient (101 kPa, Liquid) was 11.6 ± 2.4.

For `C1CCCCCCC1` [cyclooctane] + CCCCCCCCCCCCCCCC, the activity coefficient (Gas) was 0.96 ± 0.19.

In the case of `C1CCCCCCC1` [cyclooctane] + C[S+](C)[O-], the activity coefficient (101 kPa, Liquid) is reported as 63.3 ± 13.

For `C=CC1CC=CCC1` (configuration not stated) [4-ethenylcyclohexene] + C[S+](C)[O-], the activity coefficient (101 kPa, Liquid) was 20.7 ± 4.2.

Molecule `CC1CCCC1` [methylcyclopentane] + C[S+](C)[O-] has an activity coefficient (101 kPa, Liquid) of 29.5 ± 6.

Work on `C#CCCCCC` [1-heptyne] + C[S+](C)[O-] yielded an activity coefficient (101 kPa, Liquid) of 6.9 ± 1.4.

Work on `ClC(Cl)=C(Cl)Cl` [tetrachloroethene] + C[S+](C)[O-] yielded an activity coefficient (101 kPa, Liquid) of 10.5 ± 2.1.

In the case of `C=CC1CC=CCC1` (configuration not stated) [4-ethenylcyclohexene] + CCCCCCCCCCCCCCCC, the activity coefficient (Gas) is reported as 0.96 ± 0.19.

`ClC(Cl)(Cl)Br` [bromotrichloromethane] + C[S+](C)[O-] showed an activity coefficient (101 kPa, Liquid) of 2.1 ± 0.4.
